{"source": "patent US20260285850A1", "about": "“SUBSTITUTED OXAZOLIDINONES AND IMIDAZOLINONES AS HERBICIDES” (FMC CORPORATION, priority 2023, published 2026)", "type_in_all_cases": "in vivo", "key": {"[1]": {"tested_on": "barnyardgrass (Echinochloa crus-galli)", "assay": "Test A preemergence soil spray, visual injury rating 0-100", "conditions": "10 days, 0 = no effect, 100 = complete control", "summary_of_the_method": "(§1)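 Visual injury, scored 0-100 (100 = complete control) against untreated plants, 10 days after greenhouse treatment. Test chemicals in surfactant-containing non-phytotoxic solvent were applied in loam soil and sand, as a preemergence soil spray on seeds or postemergence to plants at the one- to two-leaf stage.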"}, "[2]": {"tested_on": "blackgrass (Alopecurus myosuroides)", "assay": "Test A preemergence soil spray, visual injury rating 0-100", "conditions": "10 days, 0 = no effect, 100 = complete control", "summary_of_the_method": "as §1"}, "corn (Zea mays) [3]": {"tested_on": "corn (Zea mays)", "assay": "Test A preemergence soil spray, visual injury rating 0-100", "conditions": "10 days, 0 = no effect, 100 = complete control", "summary_of_the_method": "as §1"}, "[4]": {"tested_on": "green foxtail (Setaria viridis)", "assay": "Test A preemergence soil spray, visual injury rating 0-100", "conditions": "10 days, 0 = no effect, 100 = complete control", "summary_of_the_method": "as §1"}, "kochia (Bassia scoparia) [5]": {"tested_on": "kochia (Bassia scoparia)", "assay": "Test A preemergence soil spray, visual injury rating 0-100", "conditions": "10 days, 0 = no effect, 100 = complete control", "summary_of_the_method": "as §1"}, "[6]": {"tested_on": "oat, wild (wild oat, Avena fatua)", "assay": "Test A preemergence soil spray, visual injury rating 0-100", "conditions": "10 days, 0 = no effect, 100 = complete control", "summary_of_the_method": "as §1"}, "[7]": {"tested_on": "palmer (palmer amaranth, palmer pigweed, Amaranthus palmeri)", "assay": "Test A preemergence soil spray, visual injury rating 0-100", "conditions": "10 days, 0 = no effect, 100 = complete control", "summary_of_the_method": "as §1"}, "[8]": {"tested_on": "ragweed (common ragweed, Ambrosia artemisiifolia)", "assay": "Test A preemergence soil spray, visual injury rating 0-100", "conditions": "10 days, 0 = no effect, 100 = complete control", "summary_of_the_method": "as §1"}, "[9]": {"tested_on": "ryegrass, Italian (italian ryegrass, Lolium multiflorum)", "assay": "Test A preemergence soil spray, visual injury rating 0-100", "conditions": "10 days, 0 = no effect, 100 = complete control", "summary_of_the_method": "as §1"}, "soybean (Glycine max) [10]": {"tested_on": "soybean (Glycine max)", "assay": "Test A preemergence soil spray, visual injury rating 0-100", "conditions": "10 days, 0 = no effect, 100 = complete control", "summary_of_the_method": "as §1"}, "[11]": {"tested_on": "wheat (Triticum aestivum)", "assay": "Test A preemergence soil spray, visual injury rating 0-100", "conditions": "10 days, 0 = no effect, 100 = complete control", "summary_of_the_method": "as §1"}, "[12]": {"tested_on": "barnyardgrass (Echinochloa crus-galli)", "assay": "Test A postemergence application, visual injury rating 0-100", "conditions": "10 days", "summary_of_the_method": "as §1"}, "[13]": {"tested_on": "blackgrass (Alopecurus myosuroides)", "assay": "Test A postemergence application, visual injury rating 0-100", "conditions": "10 days", "summary_of_the_method": "as §1"}, "corn (Zea mays) [14]": {"tested_on": "corn (Zea mays)", "assay": "Test A postemergence application, visual injury rating 0-100", "conditions": "10 days", "summary_of_the_method": "as §1"}, "[15]": {"tested_on": "galium (catchweed bedstraw, Galium aparine)", "assay": "Test A postemergence application, visual injury rating 0-100", "conditions": "10 days", "summary_of_the_method": "as §1"}, "[16]": {"tested_on": "green foxtail (Setaria viridis)", "assay": "Test A postemergence application, visual injury rating 0-100", "conditions": "10 days", "summary_of_the_method": "as §1"}, "[17]": {"tested_on": "horseweed (Erigeron canadensis)", "assay": "Test A postemergence application, visual injury rating 0-100", "conditions": "10 days", "summary_of_the_method": "as §1"}, "kochia (Bassia scoparia) [18]": {"tested_on": "kochia (Bassia scoparia)", "assay": "Test A postemergence application, visual injury rating 0-100", "conditions": "10 days", "summary_of_the_method": "as §1"}, "[19]": {"tested_on": "oat, wild (wild oat, Avena fatua)", "assay": "Test A postemergence application, visual injury rating 0-100", "conditions": "10 days", "summary_of_the_method": "as §1"}, "[20]": {"tested_on": "palmer (palmer amaranth, palmer pigweed, Amaranthus palmeri)", "assay": "Test A postemergence application, visual injury rating 0-100", "conditions": "10 days", "summary_of_the_method": "as §1"}, "[21]": {"tested_on": "ragweed (common ragweed, Ambrosia artemisiifolia)", "assay": "Test A postemergence application, visual injury rating 0-100", "conditions": "10 days", "summary_of_the_method": "as §1"}, "[22]": {"tested_on": "ryegrass, Italian (italian ryegrass, Lolium multiflorum)", "assay": "Test A postemergence application, visual injury rating 0-100", "conditions": "10 days", "summary_of_the_method": "as §1"}, "soybean (Glycine max) [23]": {"tested_on": "soybean (Glycine max)", "assay": "Test A postemergence application, visual injury rating 0-100", "conditions": "10 days", "summary_of_the_method": "as §1"}, "[24]": {"tested_on": "wheat (Triticum aestivum)", "assay": "Test A postemergence application, visual injury rating 0-100", "conditions": "10 days", "summary_of_the_method": "as §1"}, "[25]": {"tested_on": "barnyardgrass (Echinochloa crusgalli)", "assay": "Test B flooded paddy test, visual plant response rating 0-100", "conditions": "250 g ai/ha, Flood, applied to paddy water, evaluated after 13 days", "summary_of_the_method": "(§2)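 In this flooded assay, 2-leaf seedlings received compound through the water layer, kept at 3 cm over the soil. Plants were held 13 days in a greenhouse and then visually compared with control pots.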"}, "[26]": {"tested_on": "ducksalad (Heteranthera limosa)", "assay": "Test B flooded paddy test, visual plant response rating 0-100", "conditions": "250 g ai/ha, Flood, applied to paddy water, evaluated after 13 days", "summary_of_the_method": "as §2"}, "rice (Oryza sativa)": {"tested_on": "rice (Oryza sativa)", "assay": "Test B flooded paddy test, visual plant response rating 0-100", "conditions": "250 g ai/ha, Flood, applied to paddy water, evaluated after 13 days", "summary_of_the_method": "as §2"}, "[27]": {"tested_on": "sedge, umbrella (small-flower umbrella sedge, Cyperus difformis)", "assay": "Test B flooded paddy test, visual plant response rating 0-100", "conditions": "250 g ai/ha, Flood, applied to paddy water, evaluated after 13 days", "summary_of_the_method": "as §2"}, "[28]": {"conditions": "31 g ai/ha, postemergence, 0 = no effect, 100 = complete control"}, "[29]": {"conditions": "Postemergence, 125 g ai/ha, 0 is no effect, 100 is complete control"}}, "data": [{"smiles": "CCOC(=O)C1=CCC(NC(=O)C2(C)CN(c3cc(F)cc(F)c3)C(=O)O2)C1", "note": "(stereo not shown) [Compound 15]", "values": [{"measurement": "Barnyardgrass plant response rating (0-100)", "setting": "[1]; 31 g ai/ha", "value": 0}, {"measurement": "Barnyardgrass plant response rating (0 to 100 scale)", "setting": "[1]; 125 g ai/ha", "value": 100}, {"measurement": "Blackgrass plant response rating (0-100)", "setting": "[2]; 31 g ai/ha", "value": 0}, {"measurement": "Blackgrass plant response rating (0 to 100 scale)", "setting": "[2]; 125 g ai/ha", "value": 40}, {"measurement": "Corn plant response rating (0-100)", "setting": "corn (Zea mays) [3]; 31 g ai/ha", "value": 20}, {"measurement": "Corn plant response rating (0 to 100 scale)", "setting": "corn (Zea mays) [3]; 125 g ai/ha", "value": 60}, {"measurement": "Foxtail, Green plant response rating (0-100)", "setting": "[4]; 31 g ai/ha", "value": 30}, {"measurement": "Foxtail, Green plant response rating (0 to 100 scale)", "setting": "[4]; 125 g ai/ha", "value": 100}, {"measurement": "Kochia plant response rating (0-100)", "setting": "kochia (Bassia scoparia) [5]; 31 g ai/ha", "value": 0}, {"measurement": "Kochia plant response rating (0 to 100 scale)", "setting": "kochia (Bassia scoparia) [5]; 125 g ai/ha", "value": 90}, {"measurement": "Oat, Wild plant response rating (0-100)", "setting": "[6]; 31 g ai/ha", "value": 0}, {"measurement": "Oat, Wild plant response rating (0 to 100 scale)", "setting": "[6]; 125 g ai/ha", "value": 50}, {"measurement": "Amaranth, Palmer plant response rating (0-100)", "setting": "[7]; 31 g ai/ha", "value": 50}, {"measurement": "Amaranth, Palmer plant response rating (0 to 100 scale)", "setting": "[7]; 125 g ai/ha", "value": 100}, {"measurement": "Ragweed plant response rating (0-100)", "setting": "[8]; 31 g ai/ha", "value": 0}, {"measurement": "Ragweed plant response rating (0 to 100 scale)", "setting": "[8]; 125 g ai/ha", "value": 0}, {"measurement": "Ryegrass, Italian plant response rating (0-100)", "setting": "[9]; 31 g ai/ha", "value": 80}, {"measurement": "Ryegrass, Italian plant response rating (0 to 100 scale)", "setting": "[9]; 125 g ai/ha", "value": 90}, {"measurement": "Soybean plant response rating (0-100)", "setting": "soybean (Glycine max) [10]; 31 g ai/ha", "value": 0}, {"measurement": "Soybean plant response rating (0 to 100 scale)", "setting": "soybean (Glycine max) [10]; 125 g ai/ha", "value": 30}, {"measurement": "Wheat plant response rating (0-100)", "setting": "[11]; 31 g ai/ha", "value": 50}, {"measurement": "Wheat plant response rating (0 to 100 scale)", "setting": "[11]; 125 g ai/ha", "value": 90}, {"measurement": "Barnyardgrass plant response rating (0-100)", "setting": "[12]; [28]", "value": 100}, {"measurement": "Barnyardgrass plant response rating (0 to 100 scale)", "setting": "[12]; [29]", "value": 100}, {"measurement": "Blackgrass plant response rating (0-100)", "setting": "[13]; [28]", "value": 70}, {"measurement": "Blackgrass plant response rating (0 to 100 scale)", "setting": "[13]; [29]", "value": 100}, {"measurement": "Corn plant response rating (0-100)", "setting": "corn (Zea mays) [14]; [28]", "value": 100}, {"measurement": "Corn plant response rating (0 to 100 scale)", "setting": "corn (Zea mays) [14]; [29]", "value": 100}, {"measurement": "Galium plant response rating (0-100)", "setting": "[15]; [28]", "value": 80}, {"measurement": "Galium plant response rating (0 to 100 scale)", "setting": "[15]; [29]", "value": 90}, {"measurement": "Foxtail, Green plant response rating (0-100)", "setting": "[16]; [28]", "value": 90}, {"measurement": "Foxtail, Green plant response rating (0 to 100 scale)", "setting": "[16]; [29]", "value": 90}, {"measurement": "Horseweed plant response rating (0-100)", "setting": "[17]; [28]", "value": 0}, {"measurement": "Horseweed plant response rating (0 to 100 scale)", "setting": "[17]; [29]", "value": 0}, {"measurement": "Kochia plant response rating (0-100)", "setting": "kochia (Bassia scoparia) [18]; [28]", "value": 70}, {"measurement": "Kochia plant response rating (0 to 100 scale)", "setting": "kochia (Bassia scoparia) [18]; [29]", "value": 70}, {"measurement": "Oat, Wild plant response rating (0-100)", "setting": "[19]; [28]", "value": 90}, {"measurement": "Oat, Wild plant response rating (0 to 100 scale)", "setting": "[19]; [29]", "value": 90}, {"measurement": "Amaranth, Palmer plant response rating (0-100)", "setting": "[20]; [28]", "value": 50}, {"measurement": "Amaranth, Palmer / Pigweed, Palmer plant response rating (0 to 100 scale)", "setting": "[20]; [29]", "value": 90}, {"measurement": "Ragweed plant response rating (0-100)", "setting": "[21]; [28]", "value": 40}, {"measurement": "Ragweed plant response rating (0 to 100 scale)", "setting": "[21]; [29]", "value": 50}, {"measurement": "Ryegrass, Italian plant response rating (0-100)", "setting": "[22]; [28]", "value": 80}, {"measurement": "Ryegrass, Italian plant response rating (0 to 100 scale)", "setting": "[22]; [29]", "value": 90}, {"measurement": "Soybean plant response rating (0-100)", "setting": "soybean (Glycine max) [23]; [28]", "value": 60}, {"measurement": "Soybean plant response rating (0 to 100 scale)", "setting": "soybean (Glycine max) [23]; [29]", "value": 70}, {"measurement": "Wheat plant response rating (0-100)", "setting": "[24]; [28]", "value": 90}, {"measurement": "Wheat plant response rating (0 to 100 scale)", "setting": "[24]; [29]", "value": 90}, {"measurement": "Plant response rating, Barnyardgrass (0 to 100 scale, 0 is no effect and 100 is complete control)", "setting": "[25]", "value": 60}, {"measurement": "Plant response rating, Ducksalad (0 to 100 scale, 0 is no effect and 100 is complete control)", "setting": "[26]", "value": 80}, {"measurement": "Plant response rating, Rice (0 to 100 scale, 0 is no effect and 100 is complete control)", "setting": "rice (Oryza sativa)", "value": 65}, {"measurement": "Plant response rating, Sedge, Umbrella (0 to 100 scale, 0 is no effect and 100 is complete control)", "setting": "[27]", "value": 70}]}]}
